Patent EP4671245A1, “HETEROAROMATIC RING COMPOUND SERVING AS CDK7 KINASE INHIBITOR, PREPARATION THEREOF, AND USE THEREOF” (Jiangsu Chia Tai Fenghai Pharmaceutical Co., Ltd., priority 2023, dated 2024)
Read-outs that look alike come from different tables or passages of the source.

Tests used:
MDA-MB-468 = assay: Anti-proliferative activity on tumor cells (Cell Titer-Glo), MDA-MB-468; format: cell-based; conditions: MDA-MB-468, 7 days, 100% air
Protocol: (§1) Tumor cell lines including HCT-116, MDA-MB-468, Jurkat, HCC70, and MDA-MB-436 were cultured in their respective growth media. Cells were seeded into 384-well plates at densities of 600, 300, 800, 800, and 1000 cells/well (in 18 µL/well), respectively, and incubated overnight at 37°C under 5% CO2 (MDA-MB-468 cells were incubated overnight at 37°C under 100% air). Test sample stock solutions were prepared in DMSO at 10 mM and serially diluted 1:3 across 10 concentrations in 1% DMSO to prepare 10X intermediate dilution plates. Then, 2 µL/well of the 1oX intermediate dilution was added to the cell plates to achieve the final assay concentrations: 10000, 3333, 1111, 370, 123, 41, 14, 4.6, and 1.5 nM. HCT-116, Jurkat, and HCC70 cell plates were incubated for 3, 7, and 7 days at 37°C with 5% CO2, respectively (MDA-MB-468 cell plates were incubated for 7 days at 37°C with 100% air). After treatment, Cell Titer-Glo reagent was removed from -20°C storage and equilibrated to room temperature. Then, 20 µL/well of Cell Titer-Glo reagent was added to each well and incubated for 10 minutes. After the 10-minute incubation, luminescence was measured using a microplate reader. Data were analyzed using Excel and the IC50 values were calculated using GraphPad Prism 7.0 software.

Jurkat = assay: Anti-proliferative activity on tumor cells (Cell Titer-Glo), Jurkat; format: cell-based; conditions: 7 days
Protocol: as §1

HCC70 = assay: Anti-proliferative activity on tumor cells (Cell Titer-Glo), HCC70; format: cell-based; conditions: HCC70, 7 days
Protocol: as §1

[1] = Pharmacokinetic study in ICR mice (oral gavage and intravenous, plasma LC-MS/MS); format: in vivo; conditions: for Vd / AUC(0-t) / Cmax / MRT last / clearance / half-life / AUC(0-inf) / concentration at 8 h / Tmax / bioavailability: mouse, plasma; for Vd: iv, 10 mg/kg; for AUC(0-inf): read-out: AUCINF_obs; for concentration at 8 h: read-out: Clast; for bioavailability: read-out: Bioavailability (F)
Protocol: Each group consisted of 12 animals. The dosing vehicle was 10% DMSO + 10% polyoxyethylene castor oil + 80% physiological saline solution. The oral gavage group was fasted for approximately 12 hours prior to dosing and allowed food 4 hours after administration. Water was not restricted during the experiment. Approximately 0.2 mL of blood was collected from the orbital sinus at the following time points: pre-dose and 5, 15, 30 minutes, 1, 2, 4, 6, 8, and 24 hours post-dose. Blood was collected into EP tubes containing EDTA-K2 as anticoagulant and placed on ice. Plasma was separated by centrifugation at 3500 rpm for 5 minutes at 4°C within 1 hour of blood collection. Plasma samples were stored at -20°C until analysis. […] Pharmacokinetic parameters were calculated using WinNonlin software.

HCT-116 = assay: Anti-proliferative activity on tumor cells (Cell Titer-Glo), HCT-116; format: cell-based; conditions: HCT-116, 3 days
Protocol: as §1

CDK7/CycH/MAT1 = CDK7/CycH/MAT1 (Homo sapiens, UniProt P50613); assay: Inhibition of CDK7/CycH/MAT1 kinase activity (ADP-Glo); format: biochemical; conditions: IC50, ATP 30 µM, substrate 0.1 µM, 60 minutes at 25°C
Sequence of CDK7/CycH/MAT1 (P50613 whole entry, species assumed): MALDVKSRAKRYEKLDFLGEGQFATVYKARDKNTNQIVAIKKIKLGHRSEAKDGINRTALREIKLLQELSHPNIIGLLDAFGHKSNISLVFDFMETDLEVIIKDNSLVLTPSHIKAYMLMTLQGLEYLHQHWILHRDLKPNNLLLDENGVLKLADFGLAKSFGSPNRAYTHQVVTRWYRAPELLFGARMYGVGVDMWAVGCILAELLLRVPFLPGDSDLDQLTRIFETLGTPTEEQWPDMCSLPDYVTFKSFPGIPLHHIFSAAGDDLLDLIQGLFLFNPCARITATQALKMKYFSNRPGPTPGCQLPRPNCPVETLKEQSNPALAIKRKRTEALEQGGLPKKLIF
Sequence of CDK7/CycH/MAT1 (P51946 whole entry partner, species assumed): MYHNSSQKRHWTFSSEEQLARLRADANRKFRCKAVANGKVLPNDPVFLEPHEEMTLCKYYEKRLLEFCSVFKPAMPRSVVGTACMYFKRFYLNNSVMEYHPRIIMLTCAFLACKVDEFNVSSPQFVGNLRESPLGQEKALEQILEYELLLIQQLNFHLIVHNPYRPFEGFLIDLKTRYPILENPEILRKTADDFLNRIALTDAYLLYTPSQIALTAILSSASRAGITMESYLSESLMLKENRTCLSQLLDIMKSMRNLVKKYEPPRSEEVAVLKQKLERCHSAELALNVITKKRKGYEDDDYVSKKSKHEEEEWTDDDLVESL
Sequence of CDK7/CycH/MAT1 (P51948 whole entry partner, species assumed): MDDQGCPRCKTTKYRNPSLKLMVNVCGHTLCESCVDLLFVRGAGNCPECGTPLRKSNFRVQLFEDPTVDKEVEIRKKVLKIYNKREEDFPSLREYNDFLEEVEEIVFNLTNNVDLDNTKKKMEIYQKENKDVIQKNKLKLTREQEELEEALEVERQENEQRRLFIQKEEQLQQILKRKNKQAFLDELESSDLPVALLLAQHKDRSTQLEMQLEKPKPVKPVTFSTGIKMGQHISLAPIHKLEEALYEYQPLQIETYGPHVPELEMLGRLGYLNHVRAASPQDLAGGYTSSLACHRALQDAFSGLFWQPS
Protocol: The CDK7/CycH/MAT1 protein was thawed on ice, and the remaining reagents were equilibrated to room temperature. The CDK7/CycH/MAT1 protein and ATP/substrate were diluted to the corresponding concentrations using enzyme reaction buffer (50 mM Hepes, 10 mM MgCl2, 0.01% Brij35, 1 mM EGTA, 2 mM DTT). The test compounds were added to a 384-well white low-volume enzyme assay plate at 20 nL per well, followed by the addition of the prepared CDK7/CycH/MAT1 protein (2 µL/well), mixed well, and incubated at 25°C for 10 minutes. The reaction was initiated by adding ATP/substrate and allowed to proceed at 25°C for 60 minutes. The final concentrations of each component in the enzyme reaction system were as follows: CDK7/CycH/MAT1 protein, 3.5 ng/µL; ATP, 30 µM; substrate, 0.1 µM. The concentrations of the test compounds ranged from high to low as follows: 5000, 1667, 556, 185, 62, 21, 7, 2, 1, and 0.3 nM. After completion of the enzymatic reaction, 4 µL of ADP-Glo Reagent was added to each well and incubated at 25°C for 40 minutes. Subsequently, 8 µL of Kinase Detection Reagent was added to each well and incubated at25°C for another 40 minutes. Chemiluminescence signals were recorded using a microplate reader, and the data were used to generate dose-response curves and calculate IC50 values.

[2] = male ICR mice, iv. 10mg/kg, read-out: Vss
[3] = male ICR mice, iv. 10mg/kg, read-out: Vz

For CC(C)c1cnn2c(NCc3ccccc3)cc(NC[C@H]3CCNC[C@@H]3O)nc12 [CT7001, reference compound], the IC30 (MDA-MB-468) was 602.2 nM, the IC30 (Jurkat) was 473.3 nM and the IC30 (HCC70) was 518.9 nM. It also gave a Tlast ([1]; male ICR mice, iv. 10mg/kg) of 8 H, a Tlast ([1]; male ICR mice, po. 10mg/kg) of 8 h and a Vz ([1]; male ICR mice, po. 10mg/kg) of 55.15 L/kg. For the same compound, the Vd ([1]; male, ICR, iv. 10mg/kg, read-out: Vss) was 1.91 L/kg, the Vd ([1]; male, ICR, iv. 10mg/kg, read-out: Vz) was 2.62 L/kg and the AUC(0-t) ([1]; male ICR mice, iv. 10mg/kg) was 8120 ng·h/mL. It also gave a Cmax ([1]; male ICR mice, iv. 10mg/kg) of 17400 ng/mL, an MRT last ([1]; male ICR mice, iv. 10mg/kg) of 1.3 h and a clearance ([1]; male ICR mice, iv. 10mg/kg) of 20 mL/min/kg. The half-life ([1]; male ICR mice, iv. 10mg/kg) was 1.5 h, the AUC(0-inf) ([1]; male ICR mice, iv. 10mg/kg) was 8400 ng·h/mL and the concentration at 8 h ([1]; male ICR mice, iv. 10mg/kg) was 126 ng/mL. The AUC(0-t) ([1]; male ICR mice, po. 10mg/kg) was 541 ng·h/mL, the Cmax ([1]; male ICR mice, po. 10mg/kg) was 99 ng/mL and the MRT last ([1]; male ICR mice, po. 10mg/kg) was 3.6 h. For the same compound, the Tmax ([1]; male ICR mice, po. 10mg/kg) was 2 h, the half-life ([1]; male ICR mice, po. 10mg/kg) was 2.5 h and the AUC(0-inf) ([1]; male ICR mice, po. 10mg/kg) was 653 ng·h/mL. The bioavailability ([1]; male ICR mice, po. 10mg/kg) was 7.8%, the concentration at 8 h ([1]; male ICR mice, po. 10mg/kg) was 31 ng/mL and the IC30 (HCT-116) was 463.7 nM.

For [2H]C([2H])(Nc1cc(NC[C@H]2CCNC[C@@H]2O)nc2c(C(C)C)cnn12)c1ccccc1 [Compound 8], the IC30 (MDA-MB-468) was 350.4 nM, the IC30 (Jurkat) was 329.4 nM and the IC30 (HCT-116) was 231.7 nM.

Compound N#Cc1cnn2c(NCc3ccccc3)cc(NC[C@H]3CCNC[C@@H]3O)nc12 [Compound 22] has an IC30 (MDA-MB-468) of 2910.0 nM, an IC30 (Jurkat) of 4087.0 nM and an IC50 (CDK7/CycH/MAT1) of 4.31 nM. The IC30 (HCT-116) was 3453.0 nM.

C#CCNc1cc(NC[C@H]2CCNC[C@@H]2O)nc2c(C(C)C)cnn12 [Compound 33] gave an IC30 (MDA-MB-468) of 1101 nM, an IC30 (Jurkat) of 200.8 nM and an IC30 (HCC70) of 501.9 nM. For the same compound, the Clast ([1]; male ICR mice, iv. 10mg/kg) was 6 ng/mL, the T1/2 ([1]; male ICR mice, iv. 10mg/kg) was “longer half-life” and the Tlast ([1]; male ICR mice, iv. 10mg/kg) was 24 H. For the same compound, the Vss ([1]; male ICR mice, iv. 10mg/kg) was “higher steady-state apparent volume of distribution”, the Clast ([1]; male ICR mice, po. 10mg/kg) was 5 ng/mL and the Tlast ([1]; male ICR mice, po. 10mg/kg) was 6 h. For the same compound, the Vd [1, 2] was 27.8 L/kg, the Vd [1, 3] was 90 L/kg and the AUC(0-t) ([1]; male ICR mice, iv. 10mg/kg) was 1510 ng·h/mL. It also gave a Cmax ([1]; male ICR mice, iv. 10mg/kg) of 990 ng/mL, an MRT last ([1]; male ICR mice, iv. 10mg/kg) of 2.4 h and a clearance ([1]; male ICR mice, iv. 10mg/kg) of 104 mL/min/kg. For the same compound, the half-life ([1]; male ICR mice, iv. 10mg/kg) was 10 h, the AUC(0-inf) ([1]; male ICR mice, iv. 10mg/kg) was 1600 ng·h/mL and the AUC(0-t) ([1]; male ICR mice, po. 10mg/kg) was 65 ng·h/mL. It also gave a Cmax ([1]; male ICR mice, po. 10mg/kg) of 26 ng/mL, an MRT last ([1]; male ICR mice, po. 10mg/kg) of 2.4 h and a Tmax ([1]; male ICR mice, po. 10mg/kg) of 0.5 h. The half-life ([1]; male ICR mice, po. 10mg/kg) was 2.9 h, the AUC(0-inf) ([1]; male ICR mice, po. 10mg/kg) was 88 ng·h/mL and the bioavailability ([1]; male ICR mice, po. 10mg/kg) was 5.5%. It also gave an IC50 (CDK7/CycH/MAT1) of 2.7 nM and an IC30 (HCT-116) of 788.3 nM.

In the case of CC#CCNc1cc(NC[C@H]2CCNC[C@@H]2O)nc2c(C(C)C)cnn12 [Compound 38], the IC30 (MDA-MB-468) is reported as 765.9 nM, the IC30 (Jurkat) is reported as 858.8 nM and the IC30 (HCC70) is reported as 968.8 nM. It also gave an IC50 (CDK7/CycH/MAT1) of 18.9 nM and an IC30 (HCT-116) of 391.3 nM.

For C=CCNc1cc(NC[C@H]2CCNC[C@@H]2O)nc2c(C(C)C)cnn12 [Compound 41], the Clast ([1]; male ICR mice, iv. 10mg/kg) was 19 ng/mL, the Tlast ([1]; male ICR mice, iv. 10mg/kg) was 8 H and the Vss ([1]; male ICR mice, iv. 10mg/kg) was “higher steady-state apparent volume of distribution”. The “Bioavailability (F)” value ([1]; male ICR mice, po. 10mg/kg) was “better oral bioavailability”, the Clast ([1]; male ICR mice, po. 10mg/kg) was 8 ng/mL and the Tlast ([1]; male ICR mice, po. 10mg/kg) was 8 h. The Vd [1, 2] was 4.22 L/kg, the Vd [1, 3] was 10.9 L/kg and the AUC(0-t) ([1]; male ICR mice, iv. 10mg/kg) was 2960 ng·h/mL. For the same compound, the Cmax ([1]; male ICR mice, iv. 10mg/kg) was 4360 ng/mL, the MRT last ([1]; male ICR mice, iv. 10mg/kg) was 1.1 h and the clearance ([1]; male ICR mice, iv. 10mg/kg) was 55 mL/min/kg. For the same compound, the half-life ([1]; male ICR mice, iv. 10mg/kg) was 2.3 h, the AUC(0-inf) ([1]; male ICR mice, iv. 10mg/kg) was 3020 ng·h/mL and the AUC(0-t) ([1]; male ICR mice, po. 10mg/kg) was 445 ng·h/mL. It also gave a Cmax ([1]; male ICR mice, po. 10mg/kg) of 150 ng/mL, an MRT last ([1]; male ICR mice, po. 10mg/kg) of 2.5 h and a Tmax ([1]; male ICR mice, po. 10mg/kg) of 2 h. For the same compound, the half-life ([1]; male ICR mice, po. 10mg/kg) was 1.5 h, the AUC(0-inf) ([1]; male ICR mice, po. 10mg/kg) was 462 ng·h/mL and the bioavailability ([1]; male ICR mice, po. 10mg/kg) was 15%. For the same compound, the IC50 (CDK7/CycH/MAT1) was 6.3 nM.

CC(C)c1cnn2c(NCC3CC3)cc(NC[C@H]3CCNC[C@@H]3O)nc12 [Compound 45] gave an IC30 (MDA-MB-468) of 851.8 nM, an IC30 (Jurkat) of 1126 nM and an IC30 (HCC70) of 596.4 nM. For the same compound, the IC50 (CDK7/CycH/MAT1) was 21.2 nM and the IC30 (HCT-116) was 429.4 nM.
